We go through eleven compounds from PMC11247487, “Discovery of Dual MER/AXL Kinase Inhibitors as Bifunctional Small Molecules for Inhibiting Tumor Growth and Enhancing Tumor Immune Microenvironment” (Journal of Medicinal Chemistry, 2024).

For one series, the target named is T1, MER (Homo sapiens, UniProt Q12866).
T1 construct: A purified kinase (MER or AXL) was incubated with a compound or DMSO
T1 sequence (Q12866 21-999): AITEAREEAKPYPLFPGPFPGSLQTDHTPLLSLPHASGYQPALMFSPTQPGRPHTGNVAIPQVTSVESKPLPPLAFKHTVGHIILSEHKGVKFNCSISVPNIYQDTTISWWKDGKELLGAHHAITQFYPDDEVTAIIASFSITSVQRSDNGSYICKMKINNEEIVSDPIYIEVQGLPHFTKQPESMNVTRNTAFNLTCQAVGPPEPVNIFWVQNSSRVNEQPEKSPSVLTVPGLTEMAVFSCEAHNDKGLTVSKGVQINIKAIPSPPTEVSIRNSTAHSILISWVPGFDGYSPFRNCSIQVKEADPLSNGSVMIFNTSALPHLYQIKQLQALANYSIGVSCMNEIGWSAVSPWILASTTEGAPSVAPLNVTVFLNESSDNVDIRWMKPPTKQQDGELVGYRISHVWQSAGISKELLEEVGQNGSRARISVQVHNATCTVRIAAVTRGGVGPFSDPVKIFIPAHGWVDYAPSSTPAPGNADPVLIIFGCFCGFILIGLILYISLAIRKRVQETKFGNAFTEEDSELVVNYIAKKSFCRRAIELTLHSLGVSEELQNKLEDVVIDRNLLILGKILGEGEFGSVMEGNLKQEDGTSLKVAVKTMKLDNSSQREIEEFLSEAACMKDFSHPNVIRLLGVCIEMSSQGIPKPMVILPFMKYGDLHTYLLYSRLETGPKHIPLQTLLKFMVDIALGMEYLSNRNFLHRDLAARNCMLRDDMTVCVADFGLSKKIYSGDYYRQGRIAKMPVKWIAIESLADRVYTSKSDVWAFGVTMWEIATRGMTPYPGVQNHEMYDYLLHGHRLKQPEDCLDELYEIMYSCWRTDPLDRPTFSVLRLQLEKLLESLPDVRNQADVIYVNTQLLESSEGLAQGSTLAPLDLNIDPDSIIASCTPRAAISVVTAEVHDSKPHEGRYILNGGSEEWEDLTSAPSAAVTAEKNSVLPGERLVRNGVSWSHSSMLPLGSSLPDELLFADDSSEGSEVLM
Nature of the series: MER enzyme inhibition assay (in-house Kinase-Glo). The series is classed as biochemical. To be noted: for inhibition at 1 µM: read-out: MER inh. @ 1 μM. For orientation: Kinase-Glo reads ATP consumption through a luciferase reaction.

In a further series the target is T2, AXL (Homo sapiens, UniProt P30530).
T2 construct: A purified kinase (MER or AXL) was incubated with a compound or DMSO
T2 sequence (P30530 26-894): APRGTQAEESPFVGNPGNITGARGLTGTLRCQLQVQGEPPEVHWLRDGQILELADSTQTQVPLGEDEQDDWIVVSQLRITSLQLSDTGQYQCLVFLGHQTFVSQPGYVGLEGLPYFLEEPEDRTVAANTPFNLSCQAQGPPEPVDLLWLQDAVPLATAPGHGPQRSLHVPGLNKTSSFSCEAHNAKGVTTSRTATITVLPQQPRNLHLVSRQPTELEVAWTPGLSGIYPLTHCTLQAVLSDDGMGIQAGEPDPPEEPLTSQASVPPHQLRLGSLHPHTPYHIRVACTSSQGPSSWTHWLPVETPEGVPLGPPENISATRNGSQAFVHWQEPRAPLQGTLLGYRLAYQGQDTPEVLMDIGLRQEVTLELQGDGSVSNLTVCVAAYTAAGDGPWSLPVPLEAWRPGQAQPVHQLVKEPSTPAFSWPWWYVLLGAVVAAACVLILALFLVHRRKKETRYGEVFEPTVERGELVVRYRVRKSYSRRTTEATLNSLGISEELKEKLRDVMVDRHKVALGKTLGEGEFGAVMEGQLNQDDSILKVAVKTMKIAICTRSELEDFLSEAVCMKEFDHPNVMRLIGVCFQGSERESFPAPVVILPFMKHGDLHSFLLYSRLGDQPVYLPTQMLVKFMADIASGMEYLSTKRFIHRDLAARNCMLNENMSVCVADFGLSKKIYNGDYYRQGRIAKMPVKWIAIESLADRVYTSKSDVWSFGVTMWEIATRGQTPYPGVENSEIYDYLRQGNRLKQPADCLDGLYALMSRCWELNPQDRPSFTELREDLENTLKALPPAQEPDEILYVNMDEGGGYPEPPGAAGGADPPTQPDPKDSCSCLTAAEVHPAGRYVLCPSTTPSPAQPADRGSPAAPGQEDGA
Nature of the series: AXL enzyme inhibition assay (ADP-Glo). The series is classed as biochemical. To be noted: for inhibition at 1 µM: read-out: AXL inh. @ 1 μM. (ADP-Glo first removes unused ATP, then detects ADP through luciferase.)

A further series has as its target EGFR^WT (Homo sapiens, UniProt P00533). Briefly: EGFR^WT in-house Kinase-Glo assay. The series is classed as biochemical. To be noted: for inhibition at 1 µM: read-out: EGFR^WT inh. @ 1 μM.
A further series addresses EGFR^DM (T790M/L858R) (Homo sapiens, UniProt P00533, L858R/T790M). Nature of the series: EGFR^DM in-house Kinase-Glo assay. The series is classed as biochemical.
The test system of another series is Ba/F3-MER cells. Nature of the series: Cell viability assay (MTS). The series is classed as cell-based. To be noted: 72 h.
A short description of series [1]: In vivo pharmacokinetics study. To be noted: mice; for clearance at 24 h: read-out: iv CL; for Vd at 24 h: read-out: iv Vss. The protocol: The animal studies were performed according to NHRI institutional animal care and committee-approved procedures. Male ICR mice (25–35 g) were obtained from BioLASCO (Taiwan Co., Ltd., Ilan, Taiwan). […] All samples were analyzed for the parent drug by LC-MS/MS. Plasma concentration data were analyzed with a noncompartmental method.

The nature of series [2]: In vitro microsomal stability assay. To be noted: 1 μM, mouse liver microsomes, percent remaining at 30 min. The series is classed as in vitro ADME. The protocol: All incubations were initiated with the addition of NADPH-generating system at 37 °C for 30 min. At 0 and the end of incubation, 100 μL of aliquots were taken from the incubation mixture and placed into centrifuge tubes containing 100 μL of ice-cold acetonitrile to terminate the metabolic reaction. The samples were vortexed and centrifuged, and then, the supernatant injected onto LC/MS. Percent of remaining of each compound was calculated by comparing peak areas at 30 min to that at the initiation of incubation.

[3] abbreviates: male, ICR, mouse, plasma, iv 2 mg/kg.
[4] abbreviates: male, ICR, mouse, plasma, iv 2 mg/kg, read-out: iv T1/2 (converted).
Where [5] appears, read: male, ICR, mouse, plasma, iv 2 mg/kg, po 10 mg/kg.

“And” between values parts separate entries of the source, which are not always exact repeats. Equal values may be shown once. Read-outs that look alike come from different tables or passages of the source.

With “(4-{[5-(3-Aminophenyl)-6-phenylfuro[5,4-d]pyrimidin-4-yl]oxy}phenyl)-N-(phenylacetyl)carbamothioic amide [Compound 16]”, on MER, the “MER inh. @ 1 μM” value came out at 9%. Moreover, the “AXL inh. @ 1 μM” value on AXL is 95%. Besides, the “EGFR^WT inh. @ 1 μM” value at EGFR^WT came out at 1%. Also, on EGFR^DM (T790M/L858R), the “EGFR^DM inh. @ 1 μM” value is given as −6%. Also, the IC50 with Ba/F3-MER cells is 1140 nM.

In the case of `Cn1cc(-c2oc3ncnc(Oc4ccc(NC(=O)c5cccn(-c6ccc(F)cc6)c5=O)cc4)c3c2-c2cccc(CN)c2)cn1` [Compound 31, N-[4-({5-[3-(Aminomethyl)phenyl]-6-(1-methyl-1H-pyrazol-4-yl)furo[2,3-d]pyrimidin-4-yl}oxy)phenyl]-1-(4-fluorophenyl)-2-oxo-1,2-dihydropyridine-3-carboxamide], in the series with Ba/F3-MER cells, the IC50 came to 7.6 nM. In series [1] (setting [3]), the clearance at 24 h amounted to 35.1 mL/min/kg and the Vd at 24 h was 9.9 L/kg. Moreover, in series [1] (setting [4]), the half-life at 24 h is 6.3 h. In addition, the “iv DNAUC(0–inf)” value in series [1] (iv 2 mg/kg, dose-normalized) came out at 483.0 ng·h/mL. The “Microsomal stability @ 30 min” value in series [2] was determined as 77%.

Consider `CN1CCN(c2ccc(-c3c(-c4cnn(C)c4)oc4ncnc(Oc5ccc(NC(=O)c6cccn(-c7ccc(F)cc7)c6=O)cc5)c34)cc2)CC1` [Compound 41, 1-(4-Fluorophenyl)-N-[4-({5-[4-(4-methylpiperazin-1-yl)phenyl]-6-(1-methyl-1H-pyrazol-4-yl)furo[2,3-d]pyrimidin-4-yl}oxy)phenyl]-2-oxo-1,2-dihydropyridine-3-carboxamide], for which the IC50 was determined as 5.8 nM on MER, 15.8 nM on AXL and 0.7 nM in the series with Ba/F3-MER cells.

Consider `C=CC(=O)Nc1cccc(-c2c(-c3ccccc3)oc3ncnc(Oc4ccc(NC(=O)C5(C(=O)Nc6ccc(F)cc6)CC5)cc4)c23)c1` [Compound 11], for which the inhibition at 1 µM stood at 14% on MER, 96% on AXL and 40% on EGFR^WT. Further, the IC50 on EGFR^DM (T790M/L858R) (cell marked b = IC50 value) was 42 nM; in the series with Ba/F3-MER cells, 618 nM.

On to `Nc1cccc(-c2c(-c3ccccc3)oc3ncnc(Oc4ccc(NC(=O)c5cccn(-c6ccc(F)cc6)c5=O)cc4)c23)c1` [Compound 17, N-(4-{[5-(3-Aminophenyl)-6-phenylfuro[5,4-d]pyrimidin-4-yl]oxy}phenyl)-1-(4-fluorophenyl)-2-oxo-1,2-dihydropyridine-3-carboxamide], for which the inhibition at 1 µM was 70% on MER, 100% on AXL, 1% on EGFR^WT and -1% on EGFR^DM (T790M/L858R) (read-out: EGFR^DM inh. @ 1 μM). Besides, the concentration for half-maximal inhibition (IC50) with Ba/F3-MER cells is 8.4 nM and 8.2 nM.

For the compound “N^1-(4-{[5-(3-Aminophenyl)-6-phenylfuro[2,3-d]pyrimidin-4-yl]amino}phenyl)-N^1-(4-fluorophenyl)cyclopropane-1,1-dicarboxamide [Compound 15]”, the “MER inh. @ 1 μM” value at MER was 19%. In addition, the “AXL inh. @ 1 μM” value on AXL amounted to 92%. For the same compound, the “EGFR^WT inh. @ 1 μM” value on EGFR^WT was 1%. Moreover, at EGFR^DM (T790M/L858R), the “EGFR^DM inh. @ 1 μM” value is −4%. The same compound gave a half-maximal inhibitory concentration (IC50) in the series with Ba/F3-MER cells of 713 nM.

Take “N^1-{4-[(5,6-Diphenylfuro[2,3-d]pyrimidin-4-yl)oxy]phenyl}-N^1-(4-fluorophenyl)cyclopropane-1,1-dicarboxamide [Compound 13]”: on MER, the “MER inh. @ 1 μM” value is 41%. Moreover, at AXL, the “AXL inh. @ 1 μM” value is on record as 98%. Further, the “EGFR^WT inh. @ 1 μM” value on EGFR^WT was 3%. At EGFR^DM (T790M/L858R), the “EGFR^DM inh. @ 1 μM” value is 2%. In the series on Ba/F3-MER cells, this compound came in with an IC50 of 658 nM.

In the case of `Cn1cc(-c2oc3ncnc(Oc4ccc(NC(=O)c5cccn(-c6ccc(F)cc6)c5=O)cc4)c3c2-c2ccc(N3CCNCC3)cc2)cn1` [Compound 40, 1-(4-Fluorophenyl)-N-[4-({6-(1-methyl-1H-pyrazol-4-yl)-5-[4-(piperazin-1-yl)phenyl]furo[2,3-d]pyrimidin-4-yl}oxy)phenyl]-2-oxo-1,2-dihydropyridine-3-carboxamide], the IC50 was 2 nM against MER, 8 nM against AXL and 1.6 nM with Ba/F3-MER cells.

As for “N^1-(4-{[5-(3-Aminophenyl)-6-phenylfuro[2,3-d]pyrimidin-4-yl]oxy}phenyl)-N^1-(4-fluorophenyl)cyclopropane-1,1-dicarboxamide [Compound 12]”, the “MER inh. @ 1 μM” value on MER is reported as 71%. For the same compound, the “AXL inh. @ 1 μM” value at AXL was determined as 100%. Further, the “EGFR^WT inh. @ 1 μM” value on EGFR^WT came to 0%. Moreover, the “EGFR^DM inh. @ 1 μM” value at EGFR^DM (T790M/L858R) is −9%. The compound further gave an IC50 in the series on Ba/F3-MER cells of 73.6 nM.

Take “N^1-(4-Fluorophenyl)-N^1-{4-[(6-phenylfuro[2,3-d]pyrimidin-4-yl)oxy]phenyl}cyclopropane-1,1-dicarboxamide [Compound 14]”: the “MER inh. @ 1 μM” value at MER is recorded as 4%. Further, the “AXL inh. @ 1 μM” value on AXL turned out to be 53%. Moreover, the “EGFR^WT inh. @ 1 μM” value at EGFR^WT stood at 4%. For the same compound, at EGFR^DM (T790M/L858R), the “EGFR^DM inh. @ 1 μM” value came out at 1%. Half-maximal inhibition in the series with Ba/F3-MER cells (IC50) required 3630 nM.

In series [1] (setting [5]), `CN(C)Cc1ccc(-c2c(-c3cnn(C)c3)oc3ncnc(Oc4ccc(NC(=O)c5cccn(-c6ccc(F)cc6)c5=O)cc4)c23)cc1` [Compound 39, N-{4-[(5-{4-[(Dimethylamino)methyl]phenyl}-6-(1-methyl-1H-pyrazol-4-yl)furo[2,3-d]pyrimidin-4-yl)oxy]phenyl}-1-(4-fluorophenyl)-2-oxo-1,2-dihydropyridine-3-carboxamide] displayed a bioavailability of more than 20% and a bioavailability at 24 h of 26.2%. For the same compound, in series [1] (setting [3]), the clearance at 24 h was 84 mL/min/kg and the Vd at 24 h came to 8 L/kg. Also, the half-life at 24 h in series [1] (setting [4]) was 11.2 h. Also, the time of peak concentration (Tmax) at 24 h in series [1] (male, ICR, mouse, plasma, po 10 mg/kg) was 2 h. The half-life at 24 h in series [1] (male, ICR, mouse, plasma, po 10 mg/kg, read-out: po T1/2 (converted)) was 2.4 h. In addition, the “iv DNAUC(0–inf)” value in series [1] (iv 2 mg/kg, dose-normalized) came to 208.0 ng·h/mL. For the same compound, in series [1] (po 10 mg/kg, dose-normalized), the “po DNAUC(0–inf)” value was 54.4 ng·h/mL and the “po DNCmax” value is listed as 5.7 ng/mL. Besides, the “Microsomal stability @ 30 min” value in series [2] is 67%.

For orientation: IC50 means the concentration that inhibits the measured activity by half. A word on the bioavailability: it is dose-corrected exposure relative to a reference, in per cent. A lower bioavailability goes with poor availability. The Tmax is the time at which the peak concentration occurs.
